# Measurements taken from US10183019B2, “Treatment of cancer with dihydropyrazino-pyrazines” (Signal Pharmaceuticals, LLC, priority 2013, dated 2019).
# pIC50: −log10 of the molar value.
# Columns and labels:
# [1] = tested on: patient-derived GBM cell line 206; experiment: Gliomasphere Formation Assay; format: cell-based; conditions: cell line 206, Recurrent, MGMT Unkn/Highly Expressed; 50% sphere formation vs DMSO control
# Procedure: (§1) Primary patient-derived GBM tumor samples were dissociated and plated under culture conditions (i.e. DMEM/F12 medium supplemented with B27, 20 ng/mL bFGF, 50 ng/mL EGF, penicillin/streptomycin, L-glutamine and 5 ug/mL heparin) that produce gliomaspheres. Cells were plated at a density of 50 cells per well and allowed to acclimate overnight at 37° C. The Dihydropyrazino-Pyrazine Compounds were added to the cultures on Day 2 and replenished every 7 days. EGF and FGF were also replenished every 7 days. The cells were fixed with PFA/methanol when the smallest sphere was greater than 60 microns, typically 3-5 weeks. The cells were fixed with PFA/methanol and the next day assessed for cell number, using for example, SYTO-9 fluorescent DNA dye. Plates were read 48 h later with a laser scanning imager.
# [2] = tested on: patient-derived GBM cell line 217; experiment: Gliomasphere Formation Assay; format: cell-based; conditions: cell line 217, Primary; 50% sphere formation vs DMSO control
# Procedure: as §1
# [3] = tested on: patient-derived GBM cell line 245; experiment: Gliomasphere Formation Assay; format: cell-based; conditions: cell line 245, Recurrent; 50% sphere formation vs DMSO control
# Procedure: as §1
# [4] = tested on: patient-derived GBM cell line 250; experiment: Gliomasphere Formation Assay; format: cell-based; conditions: cell line 250, Recurrent, MGMT Unkn/Highly Expressed; 50% sphere formation vs DMSO control
# Procedure: as §1
# [5] = tested on: patient-derived GBM cell line 282; experiment: Gliomasphere Formation Assay; format: cell-based; conditions: cell line 282, Primary, MGMT ND; 50% sphere formation vs DMSO control
# Procedure: as §1
# [6] = tested on: patient-derived GBM cell line 296; experiment: Gliomasphere Formation Assay; format: cell-based; conditions: cell line 296, Recurrent, MGMT status −; 50% sphere formation vs DMSO control
# Procedure: as §1
# [7] = tested on: patient-derived GBM cell line 309; experiment: Gliomasphere Formation Assay; format: cell-based; conditions: cell line 309, Recurrent, MGMT ND; 50% sphere formation vs DMSO control
# Procedure: as §1
# [8] = tested on: patient-derived GBM cell line 350; experiment: Gliomasphere Formation Assay; format: cell-based; conditions: cell line 350, Recurrent; 50% sphere formation vs DMSO control
# Procedure: as §1
# [9] = tested on: patient-derived GBM cell line 206; experiment: Sphere-Reformation Assay; format: cell-based; conditions: 7 day pre-treatment, various doses
# Procedure: (§2) Tumorsphere lines 206, 217, 254 and 282 in FIGS. 1A, 1B, 1C and 1D, respectively, were dissociated and plated as single cells at a density of 50,000 cells/ml of tumorsphere media in a total of 10 mL per T-25 cell culture flask and 5 flasks per cell line. […] 60 wells were plated from each flask of cells. Tumorspheres were allowed to grow until they achieved at least 60 microns in diameter before they were counted. The percentage of tumorsphere formation was calculated as the number of tumorspheres counted divided by the number of cells seeded times the plating efficiency of the control.
# (§3) Patient-derived GBM cell lines cultured under tumorsphere culture conditions maintain a highly heterogenous population of cells, including both sphere-initiating cells, as well as more committed progenitor cells with limited proliferative capabilities. To determine if Compound 1 specifically targets the sphere-initiating cell population, we performed a sphere re-formation assay after Compound 1 pre-treatment. […] Compound 1 may target both the sphere-initiating cells as well as the more committed progenitor cells thus the percentage of sphere-initiating cells in the culture remains constant after Compound 1 treatment.
# [10] = tested on: patient-derived GBM cell line 217; experiment: Sphere-Reformation Assay; format: cell-based; conditions: 7 day pre-treatment, various doses
# Procedure: as §2, §3
# [11] = tested on: patient-derived GBM cell line 254; experiment: Sphere-Reformation Assay; format: cell-based
# Procedure: as §2, §3
# [12] = tested on: patient-derived GBM cell line 282; experiment: Sphere-Reformation Assay; format: cell-based; conditions: 7 day pre-treatment, various doses (100 nM and 500 nM not tested)
# Procedure: as §2, §3
# [13] = tested on: patient-derived GBM cell line 206; experiment: Combination effect of Compound 1 and TMZ on cell survival (fractional product); format: cell-based; conditions: 168 h, 7 days, read-out: % Actual inh.
# Excerpt: (§4) TMZ is an alkylating agent that delivers a methyl group to the purine bases of DNA (O^6-guanine; N^7-guanine and N^3-adenine). The cytotoxic lesion, O^6-methylguanine (O^6-MeG), caused by TMZ can be directly removed by methylguanine methyltransferase (MGMT) via direct repair and can also activate mechanisms of mismatch repair (MMR). Futile cycles of MMR lead to the formation of double-stranded DNA breaks and activation of the DNA-PK mediated mechanisms of double-stranded break repair.
# (§5) Tumorspheres grown under tumorsphere culture conditions were harvested, dissociated into single cells, and plated at 5,000 cells/well in 96-well plates. […] When the value of the column % actual inhibition divided by % inhibition calculated based on summation is >1=synergism, ˜1=summation, <1=antagonism.
# [14] = tested on: patient-derived GBM cell line 217; experiment: as above; format: cell-based; conditions: 168 h, Cmpd 1 100 nM alone, 7 days, read-out: % Actual inh.
# Excerpt: as §4, §5
# [15] = tested on: HF2354 PDX (GBM neurosphere line HF2354); experiment: Patient derived xenograft (PDX) survival study; format: in vivo, nude mouse; conditions: HF2354 PDX in nude mice; 5 mg/kg oral gavage once a day, Monday through Friday; monotherapy
# Procedure: FIG. 2: Kaplan-Meier survival analysis for HF2354 PDX line (end of study). Treatment schedule for survival (Rx) and target hit (TH) are indicated.
# Immunocompromised mice (nude mouse NCRNU-M, TACONIC) were implanted with a GBM neurosphere line derived from fresh surgical specimens. The cell line was characterized as following:
# Patient derived xenograft (PDX) treatments started four weeks prior to when the first animal was expected to become symptomatic. […] Control animals were administered vehicle alone. Target hit cohorts were treated with one dose of each compound and sacrificed 2 and 24 h later (n=3/group). As necessary, fluids and supplemental food were administered to ameliorate weight loss.
compound,measurement,setting,value
"CCN1C(=O)CNc2ncc(-c3ccc(-c4nc[nH]n4)nc3C)nc21 [Compound 1, 1-ethyl-7-(2-methyl-6-(1H-1,2,4-triazol-3-yl)pyridin-3-yl)-3,4-dihydropyrazino[2,3-b]pyrazin-2(1H)-one]",pIC50,[1],6.85
same,pIC50,[2],7.38
same,pIC50,[3],7.65
same,pIC50,[4],7.40
same,pIC50,[5],7.59
same,pIC50,[6],6.26
same,pIC50,[7],6.80
same,pIC50,[8],7.41
same,number of spheres formed by cells that survived pre-treatment vs control untreated cells,[9],not significantly different
same,number of spheres formed by cells that survived pre-treatment vs control untreated cells,[10],not significantly different
same,tumorsphere re-formation after pre-treatment,"[11]; 500 nM, 7 days",No tumorspheres re-formed
same,number of spheres formed by cells that survived pre-treatment vs control untreated cells,"[11]; 7 day pre-treatment, various doses",not significantly different
same,number of spheres formed by cells that survived pre-treatment vs control untreated cells,[12],not significantly different
same,inhibition at 0.05 µM,[13]; Cmpd 1 50 nM alone,10.6%
same,inhibition at 0.1 µM,[13]; Cmpd 1 100 nM alone,23.1%
same,inhibition at 0.5 µM,[13]; Cmpd 1 500 nM alone,65.8%
same,inhibition at 0.1 µM,[14],51%
same,survival (Kaplan-Meier),[15],significantly increased survival
